Data on 1 molecule can be found in patent US9290474B2, “Methods for making and using novel semi-synthetic small molecules for the treatment parasitic disease” (The Regents of the University of California, priority 2011, dated 2016).

This assay relates to T. brucei brucei. As to the kind of experiment: Screening against T. brucei (antiparasitic activity). Format: cell-based, Trypanosoma brucei. Particulars: initial screening.

With `CC1(C)C=CC(=O)[C@@]2(C)OOC3C[C@]12CCC3(O)CO` (stereo partly shown) [Merulin C, merulin C], the “activity against T. brucei brucei” value was found to be 0.8 µM.
